Test results reported in US11174248B2, “Indazolyl-spiro[2.3]hexane-carbonitrile derivatives as LRRK2 inhibitors, pharmaceutical compositions, and uses thereof” (Merck Sharp & Dohme Corp., priority 2017, dated 2021).

Molecular target: GST-tagged truncated human mutant G2019S LRRK2 (Homo sapiens (Human), UniProt Q5S007, G2019S)
Assay: LRRK2 Km ATP LanthaScreen Assay
Type: biochemical
Details: 134 μM ATP (Km ATP); fluorescein-labeled LRRKtide substrate; mean IC50 values
Procedure: Unless otherwise noted, all LRRK2 IC50 data presented in tables refers to the LRRK2 Km ATP LanthaScreen™ Assay that is described in the Biological Assay section.
Biological Assay: LRRK2 Km ATP LanthaScreen™ Assay
The LRRK2 kinase activity reported herein as IC50 values was determined with LanthaScreen™ technology from Life Technologies Corporation (Carlsbad, Calif.) using GST-tagged truncated human mutant G2019S LRRK2 in the presence of the fluorescein-labeled peptide substrate LRRKtide, also from Life Technologies. The data presented for the Km ATP LanthaScreen™ Assay represents mean IC50 values based on several test results and may have reasonable deviations depending on the specific conditions and reagents used. Assays were performed in the presence of 134 μM ATP (Km ATP). Upon completion, the assay was stopped and phosphorylated substrate detected with a terbium (Tb)-labeled anti-pERM antibody (cat. no. PV4898). The compound dose response was prepared by diluting a 10 mM stock of compound to a maximum concentration of 9.99 μM in 100% dimethylsulfoxide followed by custom fold serial dilution in dimethylsulfoxide nine times. Twenty nanoliters of each dilution was spotted via a Labcyte Echo onto a 384-well black-sided plate (Corning 3575) followed by 15 μl of a 1.25 nM enzyme solution in 1× assay buffer (50 mM Tris pH 8.5, 10 mM MgCl2, 0.01% Brij-35, 1 mM EGTA, 2 mM dithiothreitol, 0.05 mM sodium orthovanadate) Following a 15-minute incubation at room temperature, the kinase reaction was started with the addition of 5 μl of 400 nM fluorescein-labeled LRRKtide peptide substrate and 134 μM ATP solution in 1× assay buffer. The reaction was allowed to progress at ambient temperature for 90 minutes. The reaction was then stopped by the addition of 20 μl of TR-FRET Dilution Buffer (Life Technologies, Carlsbad, Calif.) containing 2 nM Tb-labeled anti-phospho LRRKtide antibody and 10 mM EDTA (Life Technologies, Carlsbad, Calif.). After an incubation of 1 hour at room temperature, the plate was read on an EnVision multimode plate reader (Perkin Elmer, Waltham, Mass.) with an excitation wavelength of 337 nm (Laser) and a reading emission at both 520 and 495 nm. Compound IC50s were interpolated from nonlinear regression best fits of the log of the final compound concentration, plotted as a function of the 520/495-nm emission ratio using Activity base. Abase uses a 4 parameter (4P) logistic fit based on the Levenberg-Marquardt algorithm.

GST-tagged truncated human mutant G2019S LRRK2, sequence (Q5S007 970-2527 G2019S): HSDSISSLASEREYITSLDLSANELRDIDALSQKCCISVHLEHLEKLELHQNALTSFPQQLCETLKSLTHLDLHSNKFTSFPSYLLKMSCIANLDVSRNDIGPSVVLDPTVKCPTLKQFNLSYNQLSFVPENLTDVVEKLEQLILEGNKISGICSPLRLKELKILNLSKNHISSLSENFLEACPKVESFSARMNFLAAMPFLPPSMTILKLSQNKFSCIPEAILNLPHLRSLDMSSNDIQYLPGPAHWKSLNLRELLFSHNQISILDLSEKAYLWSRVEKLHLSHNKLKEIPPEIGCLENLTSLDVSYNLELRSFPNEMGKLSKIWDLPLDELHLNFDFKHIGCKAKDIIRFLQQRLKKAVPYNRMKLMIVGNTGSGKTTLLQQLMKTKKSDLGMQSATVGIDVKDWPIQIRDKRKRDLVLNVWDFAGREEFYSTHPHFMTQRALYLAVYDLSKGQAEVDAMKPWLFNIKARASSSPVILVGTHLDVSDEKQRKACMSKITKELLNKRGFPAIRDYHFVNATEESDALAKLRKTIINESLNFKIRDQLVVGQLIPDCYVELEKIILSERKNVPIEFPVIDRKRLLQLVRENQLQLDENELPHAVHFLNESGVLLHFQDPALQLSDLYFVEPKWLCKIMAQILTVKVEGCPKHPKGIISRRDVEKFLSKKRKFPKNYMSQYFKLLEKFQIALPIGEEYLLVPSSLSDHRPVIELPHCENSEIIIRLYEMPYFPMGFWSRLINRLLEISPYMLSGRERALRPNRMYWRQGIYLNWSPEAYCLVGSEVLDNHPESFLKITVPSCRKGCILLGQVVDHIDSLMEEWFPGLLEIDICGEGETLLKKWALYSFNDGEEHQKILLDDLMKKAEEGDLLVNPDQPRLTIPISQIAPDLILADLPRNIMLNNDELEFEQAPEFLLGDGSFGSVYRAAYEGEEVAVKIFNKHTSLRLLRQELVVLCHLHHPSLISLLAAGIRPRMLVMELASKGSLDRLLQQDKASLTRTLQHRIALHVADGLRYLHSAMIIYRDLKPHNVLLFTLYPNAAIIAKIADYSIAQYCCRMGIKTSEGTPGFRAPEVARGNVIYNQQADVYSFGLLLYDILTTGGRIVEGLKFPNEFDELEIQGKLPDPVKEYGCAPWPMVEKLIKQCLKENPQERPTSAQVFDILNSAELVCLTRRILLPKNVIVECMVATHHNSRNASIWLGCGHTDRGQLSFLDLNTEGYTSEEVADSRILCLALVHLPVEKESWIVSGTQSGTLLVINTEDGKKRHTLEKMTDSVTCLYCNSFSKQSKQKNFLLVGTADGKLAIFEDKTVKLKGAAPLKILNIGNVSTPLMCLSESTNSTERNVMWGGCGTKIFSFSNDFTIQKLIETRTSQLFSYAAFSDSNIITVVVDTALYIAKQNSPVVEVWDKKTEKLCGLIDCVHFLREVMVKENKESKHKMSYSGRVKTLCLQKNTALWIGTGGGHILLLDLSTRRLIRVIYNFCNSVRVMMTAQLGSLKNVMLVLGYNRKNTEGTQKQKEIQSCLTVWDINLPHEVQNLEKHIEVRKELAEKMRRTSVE

SMILES | IC50
CC(C)(O)[C@@H]1CCN(c2cc(-n3ncc4ccc(C5(C#N)CC6(CC6)C5)cc43)ncn2)C1 [Example 11, (R)-5-(1-(6-(3-(2-hydroxypropan-2-yl)pyrrolidin-1-yl)pyrimidin-4-yl)-1H-indazol-6-yl)spiro[2.3]hexane-5-carbonitrile] | 0.9 nM
CC(C)(O)C12CC(C1)N(c1cc(-n3ncc4ccc(C5(C#N)CC6(CC6)C5)cc43)ncn1)C2 [Example 12, 5-(1-(6-(4-(2-hydroxypropan-2-yl)-2-azabicyclo[2.1.1]hexan-2-yl)pyrimidin-4-yl)-1H-indazol-6-yl)spiro[2.3]hexane-5-carbonitrile] | 2.6 nM
C[C@H]1CN(c2cc(-n3ncc4ccc(C5(C#N)CC6(CC6)C5)cc43)ncn2)CCN1C1COC1 [Example 13, (S)-5-(1-(6-(3-methyl-4-(oxetan-3-yl)piperazin-1-yl)pyrimidin-4-yl)-1H-indazol-6-yl)spiro[2.3]hexane-5-carbonitrile] | 1 nM
N#CC1(c2ccc3cnn(-c4cc(N5CCO[C@H](CO)C5)ncn4)c3c2)CC2(CC2)C1 [Example 14, (S)-5-(1-(6-(2-(hydroxy-methyl)morpholino)pyrimidin-4-yl)-1H-indazol-6-yl)spiro[2.3]hexane-5-carbonitrile] | 2.9 nM
C[C@@H]1CN(c2cc(-n3ncc4ccc(C5(C#N)CC6(CC6)C5)cc43)ncn2)C[C@H](C)[C@]1(C)O [Example 17, 5-(1-(6-((3S,4s,5R and 3R,4s,5S)-4-hydroxy-3,4,5-trimethylpiperidin-1-yl)pyrimidin-4-yl)-1H-indazol-6-yl)spiro[2.3]hexane-5-carbonitrile] | 8.9 nM
CC(C)(O)C12CC(C1)N(c1cc(-n3ncc4cnc(C5(C#N)CC6(CC6)C5)cc43)ncn1)C2 [Example 18, 5-(1-(6-(4-(2-hydroxypropan-2-yl)-2-azabicyclo[2.1.1]hexan-2-yl)pyrimidin-4-yl)-1H-pyrazolo[4,3-c]pyridin-6-yl)spiro[2.3]hexane-5-carbonitrile] | 19.2 nM
CC(C)(O)[C@@H]1CCN(c2cc(-n3ncc4cnc(C5(C#N)CC6(CC6)C5)cc43)ncn2)C1 [Example 19, (R)-5-(1-(6-(3-(2-hydroxypropan-2-yl)pyrrolidin-1-yl)pyrimidin-4-yl)-1H-pyrazolo[4,3-c]pyridin-6-yl)spiro[2.3]hexane-5-carbonitrile] | 10.7 nM
COCc1nc(N2CC3(C(C)(C)O)CC2C3)cc(-n2ncc3ccc(C4(C#N)CC5(CC5)C4)cc32)n1 [Example 20, 5-(1-(6-(4-(2-hydroxypropan-2-yl)-2-azabicyclo[2.1.1]hexan-2-yl)-2-(methoxy-methyl)pyrimidin-4-yl)-1H-indazol-6-yl)spiro[2.3]hexane-5-carbonitrile] | 16.2 nM
COCc1nc(N2CCN(C3COC3)[C@@H](C)C2)cc(-n2ncc3ccc(C4(C#N)CC5(CC5)C4)cc32)n1 [Example 21, (S)-5-(1-(2-(methoxymethyl)-6-(3-methyl-4-(oxetan-3-yl)piperazin-1-yl)pyrimidin-4-yl)-1H-indazol-6-yl)spiro[2.3]hexane-5-carbonitrile] | 10.9 nM
CC(C)(O)C1CN(c2cc(-n3ncc4ccc(C5(C#N)CC6(CC6)C5)cc43)ncn2)C1 [Example 24, 5-(1-(6-(3-(2-hydroxypropan-2-yl)azetidin-1-yl)pyrimidin-4-yl)-1H-indazol-6-yl)spiro[2.3]hexane-5-carbonitrile] | 2.6 nM
CC1(O)CN(c2cc(-n3ncc4ccc(C5(C#N)CC6(CC6)C5)cc43)ncn2)C1 [Example 25, 5-(1-(6-(3-hydroxy-3-methylazetidin-1-yl)pyrimidin-4-yl)-1H-indazol-6-yl)spiro[2.3]hexane-5-carbonitrile] | 2.9 nM
COC1(C)CN(c2cc(-n3ncc4ccc(C5(C#N)CC6(CC6)C5)cc43)ncn2)C1 [Example 26, 5-(1-(6-(3-methoxy-3-methylazetidin-1-yl)pyrimidin-4-yl)-1H-indazol-6-yl)spiro[2.3]hexane-5-carbonitrile] | 4.3 nM
